Experimental data published in patent publication US20170074857A1, “MEDICATION ADHERENCE MONITORING DEVICE” (UNIVERSITY OF FLORIDA RESEARCH FOUNDATION, INC., priority 2014, published 2017).
Where two headings read alike, the source gives them in different places.

Experiments:
[1] = orally; FDA Q3C guidance; cited from earlier work
[2] = cited from earlier work
[3] = cited from earlier work; remark: listed apart in the source
[4] = system: human carboxylesterases and tissue esterases; conditions: metabolized by human carboxyesterases and tissue esterases; cited from earlier work
[5] = Example 26: breath d6-acetone after 100 mg d8-isopropanol per diem for 5 days (LTQ-LCMS); conditions: in vivo; for Half-life: human, 100 mg
Description: 100 mg aliquots (125 μL) of neat d8-isopropanol were ingested at 24 h intervals for a period of 5 days. Each aliquot was administered in a size 0 LiCap along with ˜200 mL of water.
Each breath sample consisted of a single full breath exhaled directly into the modified ESI source.
Following the ingestion of each aliquot, breath samples were taken every 2 min for the first 30 min following ingestion, every 5 min from 30-60 min after ingestion and every 10 min from 60-120 min. Additional breath samples were collected at ˜9 h and 20 h after ingestion. After the final dose, breath samples were taken once every 24 h for the next 3 days (total study time=8 days).

[6] = in vivo
Text: FIG. 79. […] The experimental data was curve fit (parameter estimates±SE) to Equation 1 using a non-linear, least squares (Marquardt-Levenburg) algorithm (SigmaPlot 11, Systat Software, Inc., San Jose, Calif.). […] Note: the logarithmic scale is used on the y axis.
These times are indicated by the short vertical lines on the time axis. […] The y axis is plotted on the log 10 scale.
As it relates to the SMART® Adherence System, the concentration rise (rapid absorption of AEM and conversion to EDIM) and decay of the EDIM with time in breath following oral administration of the AEM is well described by a 1 compartmental (monoexponential) pharmacokinetic (PK) model, reflecting absorption and elimination, which can be described by the following equation (dertived from Miller's Anesthesia, 6th Edition, p 81, 2005, Ed: Ronald D. Miller, Elsevier Churchill Livingstone, Philadelphia, Pa.):
In this example, an initial 1st AEM dose pharmacokinetic (PK) analysis over a period of 0 to a maximum of 24 hours is carried out. […] Note: To ensure an accurate EDIM t1/2a ideally the last time point measured in this 1st dose PK analysis includes the EDIM trough concentration (i.e., the concentration at the time point just prior to the 2nd dose). The AEM could either consist of ordinary or non-ordinary cold isotopes, which generate ordinary and non-ordinary cold isotopic labeled EDIMs. The EDIM levels in breath are measured using the appropriate SMART® device type as disclosed herein.

clinical = conditions: human, exhaled breath, oral, 100 mg
[7] = not given; remark: listed apart in the source
[8] = Example 30: sodium alkyl carbonates, stability and breath ketones after ingestion (FIG. 83)
Description: Isopropanol (1000 mL) was taken lab reactor and added Na metal (6 g). The reaction mixture was heated to 80° C. for 3 h (sodium metal dissolved, clear solution was observed). The reaction mixture was cooled to 0 to 5° C. and purged CO2 (thick suspension was observed after 30 min). Aliquot were drawn after 30 min, concentrated and the solid obtained was analyzed by 1H NMR. The reaction mixture was allowed to stir for additional 30 min. The complete reaction mixture was rinsed with isopropanol (100 mL) and transferred to an R.B flask, concentrated under vacuum to get white solid. The solid obtained after concentration was dried under vacuum at 40° C. at 1 h to get 26 g of white solid.
Sodium isopropoxy carbonate is formed according to this method. The MAC from isopropanol seems to decompose at 60° C. MAC on treatment with water decomposes and white solid was isolated.
The solution was cooled to between 0 and 5° C. and purged with CO2 for 45 minutes. The resulting suspension was concentrated under high vacuum at 40-50° C. to obtain 15 g of white solid. ^1H-NMR: δ ppm (in D2O)=0.89 (triplet, 3H), 1.17 (doublet, 3H), 1.50 (multiplet, 2H), 4.38 (multiplet, 1H) ^13C-NMR: δ ppm (in D2O)=9.48, 19.59, 28.97, 73.96 and 159.61. IR: ν (cm^−1)=1651, 1458, 1369 and 1289 (indicative of an alkyl carboxylate).
Synthesis 2: Six grams of Na metal was dissolved in 100 mL of anhydrous isopropanol at 80° C. […]

[9] = Example 4a: noncompartmental pharmacokinetics of exhaled 2-butanone and 2-pentanone by mGC; type: in vivo, human; conditions: human, in vivo
Text: Test Materials. […] 2-butanol was purchased from Penta Manufacturing Company (Fairfield, N.J.). 2-pentanol and L-carvone were purchased from Sigma-Aldrich (St. Louis, Mo.). […] 2-pentanone was also used as a taggant, but we hypothesized that its inherent volatility would allow exhalation without need for metabolism. L-carvone tastes like spearmint and was used as a flavor mask. All capsules were filled on the day of the experiment.
Subject Enrollment and Protocol. This protocol (20100140) was approved by the Western Institutional Review Board (Olympia, Wash.). Healthy subjects (n=5) aged >18 years of age and of either sex were recruited. Informed, written consent was obtained from all enrolled subjects. The study consisted of a single experimental limb with six replicates per subject. Therefore, for five subjects with six replicated experiments, a total of 30 studies were performed. Subjects were free to eat ad lib prior to participation in the study. At commencement of the experiments, subjects provided a baseline breath sample (designated time 0 min) into the mGC for analysis as described subsequently. Then, subjects orally consumed the previously detailed capsule with 177 mL (6 ounces) of water. Following ingestion, we observed the breath concentration-time relationships of 2-butanone and 2-pentanone by collecting single-breath samples at times 5, 10, 15, 20, 30, 45, and 60 min. After 60 min, the experiment was concluded. After at least one day's respite, subjects returned for replicate experiments on five additional occasions.
2-Butanone and 2-Pentanone Measurement in Human Breath by mGC. Breath specimens were analyzed “real-time” to measure the concentrations of 2-butanone and 2-pentanone using the mGC (Xhale, Inc. Gainesville, Fla.) as previously described. In brief, a mouthpiece (FST®, Intoximeters, Inc., St. Louis, Mo.) was attached to the inlet of the mGC. A 15 mL side-stream sample was aspirated during a single exhalation over 5 s through this inlet port to a room temperature concentrator trap containing 4 mg of Tenax TA (Sigma-Aldrich). The trap temperature was then increased to 130° C. and the volatile components transferred to a 5 m by 0.53 mm internal diameter, metal clad, BAC-1 capillary column (Restek Corp, Bellefonte, Pa.) operated at 55° C. The effluent from the column then flowed to the metal oxide detectors. Separation of the markers from other volatile organic compounds present in the sample (i.e., acetone and isoprene) occurred in approximately 2 min. Data were tabulated and graphically presented over time to determine the concentrations of 2-butanone and 2-pentanone in a given breath specimen. Data are reported in parts-per-billion (ppb) based on molar fractions to account for differing ambient atmospheric pressures and temperature.
Pharmacokinetic Analysis. Analyte breath concentrations reported as ppb were converted to ng/mL by multiplying each concentration by the molecular weight of the respective molecule to allow proper functioning of conventional PK software for noncompartmental analysis (WinNonlin 5.2, Pharsight Corporation, St. Louis, Mo.). Estimates were generated for the following PK parameters (abbreviation, unit): first-order elimination rate constant (Lambda Z, min-1), half-life of elimination (Half-life, min), maximal drug concentration (CMAX, μg/mL), time at maximal drug concentration (TMAX, min), area under concentration versus time curve from zero to the last time point (AUC0-LAST, min*μg/mL), area under concentration versus time curve from zero to infinity (AUC0-∞, min*μg/mL), percentage of area under concentration versus time curve from zero to infinity, which is extrapolated from AUC0-t (% AUC Extrap) and the mean residence time (MRT, min). The area under concentration versus time curve (AUC) was calculated using the linear trapezoidal rule. All values are reported separately for each subject as mean±standard deviation following conversion from ng/mL to ppb. […]

In the case of `C[S+](C)[O-]` [DMSO, dimethyl sulfoxide], the “permissible daily exposure (PDE)” value [1] is given as 50 mg/day and the elimination half life ([2]; humans) is given as 12 to 15 h.

In the case of `CCCOC(C)=O` [propyl acetate], the “LD50 Oral Rat” value ([3]; in vivo, po) is given as 9370 mg/kg.

In the case of `COC(=O)c1ccc(O)cc1` [Methyl paraben], the “Breath Metabolites” value [4] is given as “Methanol + para- hydroxybenzoic acid (POHBA)”.

For `[2H]C([2H])([2H])C(=O)C([2H])([2H])[2H]` [d6-acetone], the Average k [5] was “Average k = −0.1079”, the “elimination half life in breath” value [5] was 6.4 h and the “exhaled breath peak height” value [5] was 62000 peak height. The “time after a dose up to which deviations from steady state are detectable” value [5] was “up to 65 hours”, the t½ [5] was “t½ ≃ 6.4 h” and the “maximum peak response remaining after 24 h” value ([5]; 24 h) was 6-10%. For the same molecule, the TMAX (100 mg d8-IPA) was 3 h, the “maximum breath concentration (CMAX)” value (100 mg d8-IPA, assuming breath acetone of 582 ppb) was 2,993 ppb and the TMAX ([6]; human) was 1.46 h. The “steady state CMAX” value ([6]; human) was 1819 ppb, the “CMAX, 1st dose” value ([6]; human, 100 mg) was 1561 ppb and the FLost [6] was 0.859. For the same molecule, the “accumulation factor (AF)” value [6] was 1.165 and the “steady state CTrough” value [6] was 267 ppb.

For `COC(=O)C(C)C` [methylisobutyrate], the “LD50 Oral Rat” value ([3]; oral) is given as 5000 mg/kg.

In the case of `[2H]OC([2H])(C([2H])([2H])[2H])C([2H])([2H])[2H]` [d8-IPA, d8-isopropanol], the OrbiTrap peak height (single 100 mg dose) was 360,000 peak height and the “OrbiTrap response relative to background endogenous breath acetone” value (single 100 mg dose) was “approximately 5.14 ×”.

In the case of `CCOC(=O)c1ccc(O)cc1` [Ethyl paraben], the “Breath Metabolites” value [4] is listed as “Ethanol + POHBA”.

In the case of `CCCCOC(=O)c1ccc(O)cc1` [Butyl paraben], the “Breath Metabolites” value [4] is given as “Butanol + POHBA”.

In the case of `CCCC(C)O` (centres unmarked) [Formulation 2-pentanol, 2-pentanol], the “LD50 Oral Rat” value ([3]; oral) is given as 1470 mg/kg.

With `CC(C)=O` [acetone] the Half-life ([5]; elimination half life in breath, Example 26 / FIG. 74, after d8-IPA) was roughly 384 min, the Half-life ([5]; half-life of acetone derived from IPA, exhaled breath) was roughly 390 min and the “CMAX assuming dose proportionality” value (IPA 138 mg orally per day (PDE)) was 4131 ppb. The “permissible daily exposure (PDE)” value [1] was 210 mg/day, the Half-life (clinical) was less than 600 min and the “time for trough concentrations to reach steady state” value ([7]; 100 mg IPA daily) was 1 to 2 days. For the same molecule, the breath concentration ([7]; 100 mg IPA for 5 successive days, Type 1 (mGC) device) was 2700 to 3000 ppb, the maximum breath concentration ([7]; 100 mg IPA oral) was 2800 ppb and the “rise of breath concentration over baseline” value ([7]; 100 mg IPA oral, 15 and 30 min) was “greater than 6 ×”. The “average elimination half life in humans” value ([2]; Jones, J Anal Toxicol 2000) was 22 h and the “metabolic/elimination half life in humans” value ([2]; Jones, J Anal Toxicol 2000) was 17 to 27 h.

For `CC(C)OC(=O)O` [MAC from isopropanol, Sodium Isopropyl Carbonate], the “temperature at which it seems to decompose” value [8] was 60 °C.

For `CCC(=O)OC` [methyl propionate], the “LD50 Oral Rat” value ([3]; oral) is listed as 5000 mg/kg.

In the case of `CCOC(=O)C(C)C` [ethyl isobutyrate], the “LD50 Oral Rat” value ([3]; oral) is given as 13000 mg/kg.

For `CC(=O)OCCC(C)C` [isoaryl (isopentyl) acetate], the “LD50 Oral Rat” value ([3]; oral) is listed as 16600 mg/kg.

For `CCCC(C)=O` [Formulation 2-pentanone, 2-pentanone], the Half-life ([9]; both sexes, Half-life) was 23.7 min, the MRT last ([9]; both sexes, MRT0-Last) was 25.2 min and the MRT last ([9]; both sexes, MRT0-last) was 25.4 min. The TMAX ([9]; both sexes, TMAX) was 14.8 min, the “TThresh range between replicates” value ([9]; both) was 5 to 7 min and the AUC0-8 [9] was 58214 min · ppb. For the same molecule, the “observed CMAX range” value [9] was 536-2,072 ppb.

In the case of `CCCCCCOC(C)=O` [hexyl acetate], the “LD50 Oral Rat” value ([3]; oral) is listed as 30147 mg/kg.
